Data reported in patent US4333944A, “8-Halo-6-phenyl-4H-s-triazolo (3,4-c) thieno 1,4-diazepin-1-ones” (Boehringer Ingelheim GmbH, priority 1977, dated 1982).

Tests used:
[1] = system: test animals in a conflict situation; assay: Conflict situation (inhibition of passive avoidance); type: in vivo, rat (albino, FW49); conditions: po; rat; peroral, suspension in olive oil; dose at which animals depress lever ten times despite signalled shock; graphically determined
Text: (§1) Albino mice (NMRI) having a body weight of 20 to 25 gm or albino rats (FW49) having a body weight of 140 to 200 gm were used for the tests, and the test compound was in all cases administered perorally in suspension in olive oil by means of an esophageal sound.
Determination of the dose of the test compound (DT10) at which the test animals in a conflict situation depress a lever ten times to receive a food pellet, even though a simultaneous visual signal indicates to them that they will also receive an electrical shock at the same time [see J. Geller, Arch. Int. Pharmacodyn. 149, 243 (1964)].
(§2) The values shown in the following table are graphically determined.

[2] = Acute toxicity; parameters: species or system mouse (albino, NMRI); conditions: in vivo, po; mouse; peroral, suspension in olive oil; graphically determined
Text: as §1
Determination of the median lethal dose (LD50), i.e. the dose which causes 50% of the test animals to die [Litchfield and Wilcoxon, J. Phamacol. Exper. Therap. 96,99 (1949)].
as §2

[3] = system: lethal effect of 125 mgm/kg of pentylene tetrazole; assay: Pentetrazole antagonism, mouse; type: in vivo, mouse (albino, NMRI); conditions: po, 1 h, peroral, suspension in olive oil, 125 mgm/kg pentylene tetrazole i.p. one hour after test compound, graphically determined
Experimental: as §1
(§3) The pentylene tetrazole is administered intraperitoneally one hour after administration of the test compound [see M. I. Gluckmann, Curr. Ther. Res. 7, 721 (1965)].
as §2

[4] = system: lethal effect of 125 mgm/kg of pentylene tetrazole; assay: Pentetrazole antagonism, rat; type: in vivo, rat (albino, FW49); conditions: po, 1 h, peroral, suspension in olive oil, 125 mgm/kg pentylene tetrazole i.p. one hour after test compound, graphically determined
Experimental: as §1, §3, §2

**Q.** For `O=c1[nH]nc2n1-c1sc(Br)cc1C(c1ccccc1Cl)=NC2` [Example 1, 8-Bromo-6-(o-chloro-phenyl)-4H-s-triazolo[3,4-c]thieno-[2,3-e]1,4-diazepin-1-one], which ED (DT10 (ten lever presses)) [1] is on record?
**A.** The ED (DT10 (ten lever presses)) was 1.25 mg/kg.

**Q.** And the LD50 [2]?
**A.** The LD50 was greater than 2000 mg/kg.

**Q.** What about the ED50 [3] of the same compound?
**A.** Its ED50 is 0.37 mg/kg.

**Q.** What about the ED50 [4] of the same compound?
**A.** The ED50 was 1.9 mg/kg.
